From patent US10668034B2, “Pharmaceutical compositions and the treatment of overactive bladder” (Velicept Therapeutics, Inc., priority 2010, dated 2020)
Read-outs that look alike come from different tables or passages of the source.

Key:
[1] = tested on: urinary bladder strips from rats; test: EFS-induced contractions of rat urinary bladder strips (Example 2); format: cell-based; details: for EC50: EFS-induced contractions, read-out: EC50 for inhibiting bladder contraction
Method: In order to investigate a possible pharmacological synergy on the combination of the muscarinic and the beta receptor pathways, the combination of the muscarinic antagonist oxybutynin and the beta-3 adrenoceptor agonist CL-316,243 (a very selective and potent rodent β3-AR agonist) was tested on EFS (electrical field stimulation)-induced responses in urinary bladder strips from rats.
Longitudinal strips of rat detrusor muscle were suspended in organ bath chambers containing oxygenated Krebs solution (pH 7.4, gassed with 95% O2 and 5% CO2 at 37° C.). Prazosin (1 μM) was added to the Krebs solution in order to block al-adrenoceptors. Bladder responses were measured using isometric transducers and recorded using a data acquisition system. Tissues were allowed to equilibrate under a resting tension of 1.0 g for 60 min. Following the equilibration period, strips were exposed to KCl (80 mM) to measure their viability. Tissues were washed and equilibrated for another 45 min period. Bladder strips were then subjected to EFS using the following parameters: maximal current 800 mA, frequency of 15 Hz, square pulse of 0.1 ms, trains of 4 s every 2 min. After approximately 15 min (when EFS contractions had stabilized), the selective β2-adrenoceptor antagonist ICI-118551 (30 nM) was incubated for 15 min. After stabilization of the contractile response, a concentration response curve was obtained for each bladder strip by adding CL-316,243 or oxybutynin (1 nM to 10 μM) (or corresponding vehicle) in log unit concentration increments.
In a second series of experiments, a single concentration of oxybutynin at 10 nM (determined from the first series of experiments) was added to organ bath chambers followed by various doses of CL-316,243 to provide a concentration-response curve for CL-316,243.

[2] = tested on: isolated rat urinary bladder strips; test: EFS-induced contractions of rat isolated urinary bladder strips, beta-3 agonist with or without 10 nM antimuscarinic (Example 3); format: cell-based
Method: In this study various combinations of β3-adrenoceptor agonists and antimuscarinics were tested in isolated rat urinary bladder strips. Urinary bladder smooth muscle strips were obtained from female rats (Sprague-Dawley strain, body weight 240-360 g). Two strips per bladder were prepared and connected to tension transducers in 5 ml organ baths containing Krebs-Henseleit solution (kept at 37° C., pH 7.4, gassed with 95% O2/5% CO2). Prazosin (1 μM) was added to the Krebs solution in order to block al-adrenoceptors. Strips were equilibrated for at least 60 min at 1.0 g resting tension, during which tissues were washed every 15 min. Then, each strip was exposed to 80 mM KCl to verify its viability. After another 45 min wash-out period, strips were subjected to EFS (electrical field stimulation parameters: constant current 800 mA; frequency of 15 Hz; square pulse of 0.1 ms, train of 4 s every 2 min). […] Cumulative concentrations of solabegron (10 nM-10 μM), mirabegron (10 nM-10 μM) and CL-316,243 (1 nM-10 μM) were then added in half-log increments. At the end of CRC's, 10 μM forskolin (FSK) was added to determine maximal relaxation (FIG. 1). […] Each CRC was fit using non-linear regression (GraphPad Prism® software) to obtain Emax and pIC50 (−log IC50) values. Mean CRCs for vehicle and treated strips were fit in parallel and statistically compared. The first fit was used to compare Emax values and when these values were not statistically different, a second fit was performed, sharing Emax, in order to obtain pIC50 values for each pair of curves. Differences were considered statistically significant when the null hypothesis could be rejected at a risk a of less than 0.05.

[3] = tested on: muscarinic receptor subtypes M1, M2, M3, M4 and M5; details: cited from earlier work
[4] = Drug interaction study, post void residual (PVR) volume by bladder ultrasound; format: in vivo, human
Method: A drug interaction study was conducted in healthy human volunteers, using repeat oral doses of solabegron and oxybutynin administered singly as well as in combination with each other, in order to assess the effects on pharmacokinetic and pharmacodynamic parameters, as measured by post void residual (PVR) volumes. PVR was measured in subjects treated with each agent alone as well as in combination at steady-state. The study was a two-cohort randomized, open label, repeat dose, 3-way crossover study in healthy adult subjects. Two marketed formulations of oxybutynin were used in the study: i) Ditropan IR®, which is immediate release (IR) oxybutynin; and ii) Ditropan XL® which is extended release (XL) oxybutynin. The total daily dose given was 20 mg. Solabegron was administered as tablets. […] Each study session was separated by a washout period of at least 5 days. Safety assessments included vital signs, ambulatory blood pressure monitoring (ABPM) physical examinations, clinical laboratory safety tests, 12-lead ECGs, PVR volume, to assess the potential for urinary retention, and adverse events. […] Bladder ultrasound scans to measure PVR volumes were conducted on Day-1 (one day prior to the dosing period) and Day 6 (sixth day of the dosing period) of each study session.

[5] = in the presence of oxybutynin (10 nM)
[6] = in the presence of 10 nM oxybutynin
[7] = in the presence of 10 nM tolterodine
[8] = in the presence of 10 nM solifenacin

| IC50 of beta-3 agonist vs vehicle (in words) [2, 6] | IC50 of beta-3 agonist vs vehicle (in words) [2, 7] | Compound | Emax of beta-3 agonist vs vehicle (in words) [2, 6] | Emax of beta-3 agonist vs vehicle (in words) [2, 7] | Discrimination between M3 and M1/M4 subtypes (in words) [3] | Selectivity for M3 over the M2/M5 subtypes [3] [fold] | further results |
| --- | --- | --- | --- | --- | --- | --- | --- |
| significantly lower | significantly lower | Nc1nc(CC(=O)Nc2ccc(CCNC[C@H](O)c3ccccc3)cc2)cs1 [mirabegron] |  | appeared to be increased |  |  | IC50 of beta-3 agonist vs vehicle (in words) [2, 8]: significantly lower |
|  |  | CCN(CC)CC#CCOC(=O)C(O)(c1ccccc1)C1CCCCC1 (stereo not shown) [oxybutynin, 4-diethylaminobut-2-ynyl 2-cyclohexyl-2-hydroxy-2-phenyl-ethanoate] |  |  | do not distinguish | ~10 | Effect of oxybutynin alone on EFS-induced responses (in words) ([1]; oxybutynin at a concentration of 10 nM, first series of experiments): minimal contraction |
| significantly lower | significantly lower | O=C(O)c1cccc(-c2cccc(NCCNC[C@H](O)c3cccc(Cl)c3)c2)c1 [solabegron, 3′-[(2-{[(2R)-2-(3-chlorophenyl)-2-hydroxyethyl]amino}ethyl)amino]biphenyl-3-carboxylic acid] | significantly increased | significantly increased |  |  | Mean increase from baseline in PVR volume ([4]; healthy human subjects, repeat oral doses for 5 days, Day 6 vs Day-1, solabegron 200 mg BID, oxybutynin IR 5 mg QID, oxybutynin XL 10 mg BID): 4.4 mL; Changes in PVR volume (in words) ([4]; healthy subjects): minimal changes; Emax of beta-3 agonist vs vehicle (in words) [2, 8]: significantly increased |
|  |  | O=C(O[C@H]1CN2CCC1CC2)N1CCc2ccccc2[C@@H]1c1ccccc1 [solifenacin] |  |  | do not distinguish | ~10 |  |
|  |  | Cc1ccc(O)c([C@H](CCN(C(C)C)C(C)C)c2ccccc2)c1 [tolterodine] |  |  |  |  | Discrimination between the five muscarinic subtypes (in words) [3]: does not discriminate between the five subtypes |

| Compound | IC50 of beta-3 agonist vs vehicle (in words) [2, 6] | IC50 of beta-3 agonist vs vehicle (in words) [2, 7] | Emax of beta-3 agonist vs vehicle (in words) [2, 6] | Emax of beta-3 agonist vs vehicle (in words) [2, 7] | Discrimination between M3 and M1/M4 subtypes (in words) [3] | Selectivity for M3 over the M2/M5 subtypes [3] [fold] | further results |
| --- | --- | --- | --- | --- | --- | --- | --- |
| C[C@H](Cc1ccc2c(c1)OC(C(=O)[O-])(C(=O)[O-])O2)NC[C@H](O)c1cccc(Cl)c1.[Na+].[Na+] [CL-316,243] | significantly decreased |  | significantly increased | significantly increased |  |  | Maximal inhibition of EFS-induced contractions ([1]; CL-316,243 alone): 65%; EC50 ([1]; CL-316,243 alone): 7.2 nM; Shift to the left of concentration-response curve ([1]; in the presence of a minimally effective dose of oxybutynin (10 nM)): ~3.5 fold; Maximal inhibition of EFS-induced contractions [1, 5]: 80%; EC50 [1, 5]: 2.1 nM |
